Data set [1] addresses T1, SLC-1 expression CHO cell membrane fraction (MCH receptor) (Homo sapiens, UniProt Q99705).
T1 construct: expressed in transfected cells; host or cells: CHO cells (human SLC-1 clone 57 / rat SLC-1 clone 44), membrane fraction
Briefly: Antagonistic activity of test compound using GTPγS binding assay. Type of data set: biochemical, human/rat. Particulars: [35S]-GTPγS binding stimulated by MCH, 25° C., 1 hr, read-out: inhibitory activity (IC50: nM). As for the experimental part: Determination of Antagonistic Activity of Test Compound using GTPγS Binding Assay
Using human SLC-1 expression CHO cell clone 57 and rat SLC-1 expression CHO cell clone 44 described in WO01/82925, SLC-1 expression CHO cell membrane fractions were prepared by the following method. In phosphate buffered saline (pH 7.4) supplemented with 5 mM EDTA (ethylenediaminetetraacetic acid) were suspended human and rat SLC-1 expression CHO cells (1×10^8) and centrifuged. Homogenate buffer (10 ml, 10 mM NaHCO3, 5 mM EDTA, pH 7.5) was added to the pellets of the cells and, using Polytron Homogenizer, the mixture was homogenated. The supernatant obtained after centrifugation at 400×g for 15 min was further centrifuged at 100,000×g for 1 hr to give precipitate of the membrane fraction. The precipitate was suspended in 2 ml of an assay buffer [50 mM Tris-HCl (pH 7.5), 1 mM EDTA, 0.1% BSA (bovine serum albumin), 10 mM MgCl2, 100 mM NaCl, 1 μM GDP (guanosine 5′-diphosphate), 0.25 mM PMSF (phenylmethylsulfonyl fluoride), […] pepstatin, […] leupeptin, […] phosphoramidon] and centrifuged at 100,000×g for 1 hr. The membrane fraction recovered as precipitate was suspended again in 20 ml of an assay buffer, and after dispensing, preserved at −80° C. and used upon thawing each time when in use.
The antagonistic activity of the test compound was determined as follows. The SLC-1 expression CHO cell membrane fraction (171 μl) diluted with an assay buffer was dispensed to a polypropylene 96 well plate and 3×10^−10 M MCH (2 μl) diluted with DMSO solution, test compound solution (2 μl) diluted to various concentrations and [^35S]-Guanosine 5′-(γ-thio)triphosphate ([…] Daiichi Pure Chemicals Co., Ltd.) were respectively added (cell membrane final concentration: 20 μg/ml, [^35S]-Guanosine 5′-(γ-thio)triphosphate final concentration: 0.33 nM). The reaction mixture was reacted at 25° C. for 1 hr with stirring, suction filtered with a glass filter (GF-C) and washed 3 times with a wash solution (300 μl, 50 mM Tris-HCl buffer, pH 7.5). Liquid scintillator ([…]) was added to the glass filter and the residual radioactivity was determined by a liquid scintillation counter. Binding inhibition (%)=(radioactivity upon addition of test compound and MCH−radioactivity upon addition of DMSO solution)/(radioactivity upon addition of MCH−radioactivity upon addition of DMSO solution)×100
From the binding inhibition (%), IC50 of the test compound was calculated.

Each structure is given as a SMILES string. Counter-ions that a name gives are not always drawn.

T1 sequence (Q99705 whole entry): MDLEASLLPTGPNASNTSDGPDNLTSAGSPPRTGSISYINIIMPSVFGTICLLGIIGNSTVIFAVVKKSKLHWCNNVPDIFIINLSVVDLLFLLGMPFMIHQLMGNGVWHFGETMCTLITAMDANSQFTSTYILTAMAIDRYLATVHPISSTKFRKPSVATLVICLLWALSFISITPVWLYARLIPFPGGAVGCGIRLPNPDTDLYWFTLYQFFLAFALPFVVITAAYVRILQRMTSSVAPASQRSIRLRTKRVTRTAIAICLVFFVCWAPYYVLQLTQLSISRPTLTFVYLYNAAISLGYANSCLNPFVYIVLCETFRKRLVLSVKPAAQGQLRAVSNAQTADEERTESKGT

Take `O=c1c2sc(-c3ccc(Cl)cc3)cc2ncn1CCc1ccc(CN2CCCC2)cc1` [Example 1, 6-(4-chlorophenyl)-3-{2-[4-(pyrrolidin-1-ylmethyl)phenyl]ethyl}thieno[3,2-d]pyrimidin-4(3H)-one]: the melting point is 163 to 166 °C. In data set [1], the IC50 was 0.3 nM. The matching figures for `CC(c1ccc(CCn2cnc3cc(-c4ccc(Cl)cc4)sc3c2=O)cc1)N1CCCCC1` (stereo not drawn) [Example 2, 6-(4-chlorophenyl)-3-{2-[4-(1-piperidin-1-ylethyl)phenyl]ethyl}thieno[3,2-d]pyrimidin-4(3H)-one]: 175 to 179 °C and 0.4 nM. `CNCc1ccc(CCn2cnc3cc(-c4ccc(Cl)cc4)sc3c2=O)cc1` [Example 4, 6-(4-chlorophenyl)-3-(2-{4-[(methylamino)methyl]phenyl}ethyl)thieno[3,2-d]pyrimidin-4(3H)-one dihydrochloride]: the IC50 in data set [1] turned out to be 0.4 nM. For `CC(=O)N(C)Cc1ccc(CCn2cnc3cc(-c4ccc(Cl)cc4)sc3c2=O)cc1` [Example 6, N-(4-{2-[6-(4-chlorophenyl)-4-oxothieno[3,2-d]pyrimidin-3(4H) -yl]ethyl}benzyl)-N-methylacetamide], the melting point was in the range of 176 to 178 °C. Besides, the IC50 in data set [1] was 4.8 nM. On the same counts, the results for `CN(C)C(=S)N(C)Cc1ccc(CCn2cnc3cc(-c4ccc(Cl)cc4)sc3c2=O)cc1` [Example 9, N-(4-{2-[6-(4-chlorophenyl)-4-oxothieno[3,2-d]pyrimidin-3(4H) -yl]ethyl}benzyl)-N,N′,N′-trimethylthiourea] are 156 to 158 °C and 4.7 nM. The matching figures for `O=C1CCCN1Cc1ccc(CCn2cnc3cc(-c4ccc(Cl)cc4)sc3c2=O)cc1` [Example 11, 6-(4-chlorophenyl)-3-(2-{4-[(2-oxopyrrolidin-1-yl)methyl]phenyl}ethyl)thieno[3,2-d]pyrimidin-4(3H)-one]: 218 to 221 °C and 3.2 nM. In the case of `O=c1c2sc(-c3ccc(Cl)cc3)cc2ncn1CCc1ccc(CN2CC[C@H](F)C2)cc1` [Example 18, 6-(4-chlorophenyl)-3-[2-(4-{[(3S)-3-fluoropyrrolidin-1-yl]methyl}phenyl)ethyl]thieno[3,2-d]pyrimidin-4(3H)-one], in data set [1], the IC50 came out at 1.2 nM. Still for that read-out and setting: for `CC(=O)N(C)N(C)c1ccc(CCn2cnc3cc(-c4ccc(Cl)cc4)sc3c2=O)cc1` [Example 22, N′-[4-[2-[6-(4-chlorophenyl)-4-oxothieno[3,2-d]pyrimidin-3(4H)-yl]ethyl]phenyl]-N,N′-dimethylacetohydrazide] the value was 10 nM. As for `CN(CC(N)=O)Cc1ccc(CCn2cnc3cc(-c4ccc(Cl)cc4)sc3c2=O)cc1` [Example 32, N^2-(4-{2-[6-(4-chlorophenyl)-4-oxothieno[3,2-d]pyrimidin-3(4H) -yl]ethyl}benzyl)-N^2-methylglycinamide], the melting point lay in the range of 207 to 212 °C. The IC50 in data set [1] was determined as 5 nM.

The record behind these values is patent US7989445B2, “Thienopyrimidone compound” (Takeda Pharmaceutical Company Limited, priority 2005, dated 2011).
